Like-named read-outs stand apart in the source and are kept apart here.
Columns and labels:
ICE = target: T1, ICE (Homo sapiens, UniProt P29466); assay: Enzyme assay with UV-visible substrate (visible ICE assay, Succinyl-Tyr-Val-Ala-Asp-pNitroanilide); type: biochemical
T1 sequence (P29466 120-297 limits assumed): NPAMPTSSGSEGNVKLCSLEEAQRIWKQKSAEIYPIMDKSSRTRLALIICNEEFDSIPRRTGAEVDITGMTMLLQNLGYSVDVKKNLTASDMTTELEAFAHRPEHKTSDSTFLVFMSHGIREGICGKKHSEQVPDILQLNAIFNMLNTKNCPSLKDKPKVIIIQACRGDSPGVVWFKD
T1 sequence (P29466 317-404 limits assumed): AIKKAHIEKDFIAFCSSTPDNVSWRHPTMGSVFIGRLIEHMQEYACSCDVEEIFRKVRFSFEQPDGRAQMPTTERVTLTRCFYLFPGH
Outline: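 Colorimetric caspase-1 activity: 15 min enzyme-inhibitor preincubation (RT), then Suc-Tyr-Val-Ala-Asp-pNA; 405-603 nm kinetics, 20 min, 37° C. Ki from rate fitting.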

[1] = system: IL-1β, human peripheral blood mononuclear cells (PBMC); assay: PBMC cell assay: IL-1β assay with human PBMC or enriched adherent mononuclear cells, LPS-stimulated; type: cell-based; details: Homo sapiens, PBMC
Source text: IL-1β Assay with a Mixed Population of Human Peripheral Blood Mononuclear Cells (PBMC) or Enriched Adherent Mononuclear Cells
Processing of pre-IL-1β by ICE can be measured in cell culture using a variety of cell sources. Human PBMC obtained from healthy donors provides a mixed population of lymphocyte subtypes and mononuclear cells that produce a spectrum of interleukins and cytokines in response to many classes of physiological stimulators. Adherent mononuclear cells from PBMC provides an enriched source of normal monocytes for selective studies of cytokine production by activated cells.
An initial dilution series of test compound in DMSO or ethanol is prepared, with a subsequent dilution into RPMI-10% FBS media (containing 2 mM L-glutamine, 10 mM HEPES, 50 U and 50 ug/ml pen/strep) respectively to yield drugs at 4× the final test concentration containing 0.4% DMSO or 0.4% ethanol. The final concentration of DMSO is 0.1% for all drug dilutions. A concentration titration which brackets the apparent Ki for a test compound determined in an ICE inhibition assay is generally used for the primary compound screen.
Generally 5-6 compound dilutions are tested and the cellular component of the assay is performed in duplicate, with duplicate ELISA determinations on each cell culture supernatant.
PBMC Isolation and IL-1 Assay:
Buffy coat cells isolated from one pint human blood (yielding 40-45 ml final volume plasma plus cells) are diluted with media to 80 ml and LeukoPREP separation tubes (Becton Dickinson) are each overlaid with 10 ml of cell suspension. After 15 min centrifugation at 1500-1800×g, the plasma/media layer is aspirated and then the mononuclear cell layer is collected with a Pasteur pipette and transferred to a 15 ml conical centrifuge tube (Corning). Media is added to bring the volume to 15 ml, gently mix the cells by inversion and centrifuge at 300×g for 15 min. Resuspend the PBMC pellet in a small volume of media, count cells and adjust to 6×10^6 cells/ml.
For the cellular assay, 1.0 ml of the cell suspension is added to each well of a 24-well flat bottom tissue culture plate (Corning), 0.5 ml test compound dilution and 0.5 ml LPS solution (Sigma #L-3012; 20 ng/ml solution prepared in complete RPMI media; final LPS concentration 5 ng/ml). The 0.5 ml additions of test compound and LPS are usually sufficient to mix the contents of the wells. Three control mixtures are run per experiment, with either LPS alone, solvent vehicle control, and/or additional media to adjust the final culture volume to 2.0 ml. The cell cultures are incubated for 16-18 hr at 37° C. in the presence of 5% CO2.
At the end of the incubation period, cells are harvested and transferred to 15 ml conical centrifuge tubes. After centrifugation for 10 min at 200×g, supernatants are harvested and transferred to 1.5 ml Eppendorf tubes. It may be noted that the cell pellet may be utilized for a biochemical evaluation of pre-IL-1β and/or mature IL-1β content in cytosol extracts by western blotting or ELISA with pre-IL-1β specific antisera.
Isolation of Adherent Mononuclear Cells:
PBMC are isolated and prepared as described above. Media (1.0 ml) is first added to wells followed by 0.5 ml of the PBMC suspension. After a one hour incubation, plates are gently shaken and nonadherent cells aspirated from each well. Wells are then gently washed three times with 1.0 ml of media and final resuspended in 1.0 ml media. The enrichment for adherent cells generally yields 2.5−3.0×10^5 cells per well. The addition of test compounds, LPS, cell incubation conditions and processing of supernatants proceeds as described above.
We have used Quantikine kits (R&D Systems) for measurement of mature IL-1β. Assays are performed according to the manufacturer's directions. Mature IL-1β levels of about 1-3 ng/ml in both PBMC and adherent mononuclear cell positive controls are observed. […]

IL-1β, human whole blood = assay: Whole blood assay for IL-1β production; type: cell-based; details: read-out: Whole human blood IC50
Description: The whole blood assay is a simple method for measuring the production of IL-1b (or other cytokines) and the activity of potential inhibitors. The complexity of this assay system, with its full complement of lymphoid and inflammatory cell types, spectrum of plasma proteins and red blood cells is an ideal in vitro representation of human in vivo physiologic conditions.
Pyrogen-free syringes (˜30 cc) Pyrogen-free sterile vacuum tubes containing lyophilized Na2EDTA (4.5 mg/10 ml tube) Human whole blood sample (˜30-50 cc) 1.5 ml eppendorf tubes Test compound stock solutions (˜25 mM in DMSO or other solvent) Endotoxin-free sodium chloride solution (0.9%) and HBSS Lipopolysaccharide (Sigma; Cat. # L-3012) stock solution at 1 mg/ml in HBSS
IL-1β ELISA Kit (R & D Systems; Cat # DLB50)
TNFα ELISA Kit (R & D Systems; Cat # DTA50)
Whole Blood Assay Experimental Procedure:
Set incubator or water bath at 30° C. Aliquot 0.25 ml of blood into 1.5 ml eppendorf tubes. Note: be sure to invert the whole blood sample tubes after every two aliquots. Differences in replicates may result if the cells sediment and are not uniformly suspended. Use of a positive displacement pipette will also minimize differences between replicate aliquots.
Prepare drug dilutions in sterile pyrogen-free saline by serial dilution. A dilution series which brackets the apparent Ki for a test compound determined in an ICE inhibition assay is generally used for the primary compound screen.
Add 25 μl test compound dilution or vehicle control and gently mix the sample. Then add 5.0 μl LPS solution (250 ng/ml stocked prepared fresh: 5.0 ng/ml final concentration LPS), and mix again. Incubate the tubes at 30° C. in a water bath for 16-18 hr with occasional mixing. Alternatively, the tubes can be placed in a rotator set at 4 rpm for the same incubation period. This assay should be set up in duplicate or triplicate with the following controls: negative control—no LPS; positive control—no test inhibitor; vehicle control—the highest concentration of DMSO or compound solvent used in the experiment. Additional saline is added to all control tubes to normalize volumes for both control and experimental whole blood test samples
After the incubation period, whole blood samples are centrifuged for 10 minutes at ˜2000 rpm in the microfuge, plasma is transferred to a fresh microfuge tube and centrifuged at 1000×g to pellet residual platelets if necessary. Plasma samples may be stored frozen at −70° C. prior to assay for cytokine levels by ELISA.
We have used R & D Systems (614 McKinley Place N.E. Minneapolis, Minn. 55413) Quantikine kits for measurement of IL-1β and TNF-α. The assays are performed according to the manufacturer's directions.
We have observed IL-1β levels of ˜1-5 ng/ml in positive controls among a range of individuals. A 1:200 dilution of plasma for all samples has been sufficient in our experiments for ELISA results to fall on the linear range of the ELISA standard curves. It may be necessary to optimize standard dilutions if you observe differences in the whole blood assay. Nerad, J. L. et al., J. Leukocyte Biol., 52, pp. 687-692 (1992).

[2] = * = values obtained upon reassay
[3] = Homo sapiens, * = values obtained upon reassay

Row | Structure (SMILES) | Ki (ICE; Table 5) [nM] | IC50 (IL-1β, human whole blood; [3]) [nM] | Ki (ICE; Table 17) [nM] | IC50 (IL-1β, human whole blood; Homo sapiens, Table 17) [nM] | IC50 (IL-1β, human whole blood; [2]) [nM] | IC50 [1, 2] [nM] | IC50 ([1]; Table 17) [nM]
1 | O=C[C@H](CC(=O)O)NC(=O)[C@@H]1CCCN2C(=O)CC[C@H](NC(=O)c3ccc4nn[nH]c4c3)C(=O)N12 [Compound 432] | 1.6 | 2000 |  |  |  | 560 | 
2 | CC(=O)OCC(=O)N1C[C@H](NC(=O)c2ccccc2)C(=O)N(CC(=O)N[C@H](C=O)CC(=O)O)c2ccccc21 [Compound 683, (3S)-3-[(3S)-2-Oxo-3-benzoylamino-5-(2-acetoxy)acetyl-2,3,4,5-tetrahydro-1H-1,5-benzodiazepine-1-acetylamino]-4-oxo-butyric acid] |  |  | 400 | > 20000 |  |  | > 20000
3 | O=C[C@H](CC(=O)O)NC(=O)[C@@H]1CCCN2C(=O)CC[C@H](NC(=O)c3ccc4ccccc4n3)C(=O)N12 [Compound 411] | 0.9 | 1900 |  |  |  | 540 | 
4 | COc1cc(C(=O)N[C@H]2CCC(=O)N3CCC[C@@H](C(=O)N[C@H](C=O)CC(=O)O)N3C2=O)nc2ccccc12 [Compound 437] | 12 | 5000 |  |  |  | 1800 | 
5 | Cc1cc2c(cc1C(=O)N[C@H]1CCC(=O)N3CCC[C@@H](C(=O)N[C@H](C=O)CC(=O)O)N3C1=O)OCO2 [Compound 473] | 1 | 400 |  |  | 450 | 1000 | 
6 | Cc1nc(-c2ccc(C(F)(F)F)cc2)sc1C(=O)N[C@H]1CCC(=O)N2CCC[C@@H](C(=O)N[C@H](C=O)CC(=O)O)N2C1=O [Compound 468] | 4.5 | 2500 |  |  |  | 850 | 
7 | O=C[C@H](CC(=O)O)NC(=O)[C@@H]1CCCN2C(=O)CC[C@H](NC(=O)c3cccc4cccnc34)C(=O)N12 [Compound 439] | 3.7 | 3200 |  |  | 3400 | 2800 | 
8 | O=C[C@H](CC(=O)O)NC(=O)[C@@H]1CCCN2C(=O)CC[C@H](NC(=O)c3ccc(OC(=O)c4ccc(O)cc4)cc3)C(=O)N12 [Compound 457] | 6.2 | 3500 |  |  |  | 2000 | 
9 | CC(=O)N[C@H]1CCC(=O)N2CCC[C@@H](C(=O)N[C@@H](CC(=O)O)C(=O)COc3cccnc3)N2C1=O [Compound 283d, [3S(1S,9S)]3-(9-Acetamido-6,10-dioxo-1,2,3,4,7,8,9,10-octahydro-6H-pyridazino[1,2-a][1,2]diazepine-1-carboxamido)-4-oxo-5-(3-pyridyloxy)pentanoic acid] |  |  |  | 10000 |  |  | > 8000

Second part, led by results:

Row | Ki (ICE; Table 5) [nM] | IC50 (IL-1β, human whole blood; [3]) [nM] | Ki (ICE; Table 17) [nM] | IC50 (IL-1β, human whole blood; Homo sapiens, Table 17) [nM] | IC50 (IL-1β, human whole blood; [2]) [nM] | Structure (SMILES) | IC50 [1, 2] [nM] | IC50 ([1]; Table 17) [nM]
10 |  |  | 4.5 | 7000 |  | CN(C)c1ccc(C(=O)N[C@H]2CN(C(=O)CO)c3ccccc3N(CC(=O)N[C@H](C=O)CC(=O)O)C2=O)cc1 [Compound 913] |  | 2400
11 |  |  | 3.5 | 2300 |  | COc1cccc(OC)c1C(=O)C(=O)NN1CCC(=O)N2CCC[C@@H](C(=O)N[C@H](C=O)CC(=O)O)N2C1=O [Compound 1112] |  | 1800
12 |  | 1700 |  |  |  | COc1cccc2oc(C(=O)[C@H](CC(=O)O)NC(=O)[C@@H]3CCCN4C(=O)CC[C@H](NC(=O)CCc5ccccc5)C(=O)N34)nc12 [Compound 135b] | 1600 | 
13 |  |  | 5 | 2200 |  | COc1cccc(OC)c1C(=O)C(=O)N[C@H]1CN(C(=O)CO)c2ccccc2N(CC(=O)N[C@H](C=O)CC(=O)O)C1=O [Compound 678] |  | 2700
14 |  |  | 30 | 6000 |  | O=C[C@H](CC(=O)O)NC(=O)CN1C(=O)[C@@H](NC(=O)c2cccc3ccccc23)CN(C=O)c2ccccc21 [Compound 653, (3S)-3-[(3S)-2-Oxo-3-(1-naphthoyl)amino-5-formyl-2,3,4,5-tetrahydro-1H-1,5-benzodiazepine-1-acetylamino]-4-oxo-butyric acid] |  | 2300
15 |  |  | 9 | 1900 |  | CC(=O)Nc1ccc(C(=O)N[C@H]2CN(C(=O)CO)c3ccccc3N(CC(=O)N[C@H](C=O)CC(=O)O)C2=O)cc1 [Compound 911] |  | 3500
16 |  |  | 2.5 | 1600 |  | COc1cccc(OC)c1C(=O)C(=O)N[C@H]1CCC(=O)N2CCC[C@@H](C(=O)N[C@H](C=O)CC(=O)O)N2C1=O [Compound 501] |  | 1800
17 | 125 | > 20000 |  |  |  | O=C[C@H](CC(=O)O)NC(=O)CN1C(=O)[C@@H](NC(=O)c2ccccc2)CN(C(=O)NCc2ccccc2)c2ccccc21 [Compound 605p, (3S)-3-[(3S)-2-Oxo-3-benzoylamino-5-benzylaminocarbonyl-2,3,4,5-tetrahydro-1H-1,5-benzodiazepin-1-acetylamino]-4-oxo-butyric acid] | 3200 | 
18 | 6.5 | 2100 |  |  |  | COc1ccccc1C(=O)N[C@H]1CCC(=O)N2CCC[C@@H](C(=O)N[C@H](C=O)CC(=O)O)N2C1=O [Compound 405] | 1700 | 
